Data: paper PMC12951430, “Modular Vinyl Phosphonamidates for Cysteine-Directed Protein Targeting” (Journal of the American Chemical Society, 2026)

What was measured:
BTK in RAMOS cells = target: T1, BTK in RAMOS cells (Homo sapiens, UniProt Q06187); assay: Gel-based ABPP of BTK probes in RAMOS cells; format: cell-based; conditions: 250 nM, 1 h, 37 °C
T1 construct: we performed a gel-based ABPP experiment using RAMOS cells; host or cells: RAMOS
From the text: Motivated by these promising results, we wanted to extend the scope toward a different class of kinase inhibitors. […] Inspired by these findings, we synthesized a series of VPA probes based on the pyrazolo[3,4-d]-pyrimidine scaffold (8–11, Figure a), each harboring a different aromatic linker. To compare their reactivity and selectivity for BTK, we performed a gel-based ABPP experiment using RAMOS cells. […] In contrast, for all four PA probes, only one intense band was obtained at the same height as BTK. […] Analogously to Afatinib-derived probe 4a, we wanted to investigate whether one stereoisomer might show preferential binding.
(b) Comparison of the in-cell reactivity profiles of BTK probes 8–12 in RAMOS cells (250 nM, 1 h, 37 °C) analyzed by gel-based ABPP. […]
Fluorescence was monitored over 4 h at 30 °C every 60 seconds (λex = 360 nm and λem = 492 nm).
Background‑subtracted fluorescence intensity (RFU) was plotted against time (s), and data were fitted to a single‑phase association model: […]
4.7 In-cell protein labeling and in -gel fluorescence analysis […]
Afterwards, the precipitate was redissolved in 40 µl 8 M urea (100 mM Tris, pH 8), 8 µl Laemmli buffer were added and the samples were denatured at 95 °C for 5 minutes. Proteins were seperated via SDS - PAGE (12% or 4-20% acrylamide gels) and analyzed on a Gel Doc XR+ (Bio-Rad, USA). […]

RAMOS cells = assay: Streptavidin pull-down with BTK probes in RAMOS cells (LFQ); format: cell-based, human; conditions: 10 μM probe, log2-fold change >2.5, p <0.01
Procedure: (b) Comparison of the in-cell reactivity profiles of BTK probes 8–12 in RAMOS cells (250 nM, 1 h, 37 °C) analyzed by gel-based ABPP. (c) Superposition of the two stereoisomers of 9 covalently docked onto the crystal structure of BTK (PDB: 5P9J).
To verify the identity of the protein(s) labeled by our best-performing probe 9, we performed in-cell labeling followed by streptavidin pull-down coupled to LC-MS/MS analysis.
4.8 In-cell protein labeling and s ample preparation for proteomic pull-down Cells were cultured, treated and lysed as described in 4.4. Lysates (approx. 200 μg of protein each) […]
Afterwards, the samples we re processed according to a procedure published by Becker et al. 10: A total of 50 μl of mixed hydrophobic and hydrophilic carboxylate -coated magnetic beads (1:1, prewashed with PBS; Seramag™, Cytavia) was added to the click reaction mixture followed by 600 μl of absolute ethanol to precipitate the proteins. Beads were washed thrice with of 80% ethanol and proteins were eluted by two sequential washes of 0.2% SDS in PBS. […]
The obtained raw-data was analyzed using FragPipe (v20 to 21) using the built-in LFQ-MBR workflow using the whole human proteome as search space and applying the following MSFragger11 settings: […]

[1] = unprotected lysine 10 equiv, 5 days, pH 7.4 and pH 8.5, room temperature
Procedure: To this end, unprotected lysine (10 equiv) was incubated with 1a for 5 days (pH 7.4 and pH 8.5, room temperature).
The assay was performed analogously to glutathion reactivity using L -lysine. In addition to pH 7.4
The reaction was monitored for a total
of 5 days and aliquotes were taken at indicated timepoints and analyzed via UPLC -UV/MS.

T1 sequence (Q06187 whole entry): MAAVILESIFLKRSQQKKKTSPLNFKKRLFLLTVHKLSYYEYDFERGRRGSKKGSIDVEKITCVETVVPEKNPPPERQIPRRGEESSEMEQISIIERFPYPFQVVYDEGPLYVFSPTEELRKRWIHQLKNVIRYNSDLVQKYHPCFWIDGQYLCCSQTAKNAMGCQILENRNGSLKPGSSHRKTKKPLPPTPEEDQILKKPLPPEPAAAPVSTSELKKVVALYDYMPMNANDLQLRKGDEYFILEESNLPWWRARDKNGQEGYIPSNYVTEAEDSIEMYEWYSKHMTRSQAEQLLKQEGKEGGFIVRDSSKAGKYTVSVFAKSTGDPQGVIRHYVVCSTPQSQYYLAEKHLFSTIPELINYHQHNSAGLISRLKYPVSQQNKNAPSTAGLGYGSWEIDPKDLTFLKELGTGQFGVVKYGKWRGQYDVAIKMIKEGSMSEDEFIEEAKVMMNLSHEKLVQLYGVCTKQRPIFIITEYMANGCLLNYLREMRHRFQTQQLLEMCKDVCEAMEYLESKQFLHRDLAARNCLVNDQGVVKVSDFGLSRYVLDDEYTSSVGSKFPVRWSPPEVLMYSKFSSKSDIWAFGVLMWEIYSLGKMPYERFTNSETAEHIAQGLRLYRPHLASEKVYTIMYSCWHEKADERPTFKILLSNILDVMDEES

SMILES	in-cell reactivity profile (gel bands) (BTK in RAMOS cells)	off-targets significantly enriched (RAMOS cells)	reactivity toward L-lysine / buffer stability [1]
C#Cc1cccc(Oc2ccc(-c3nn(C4CCCN(C(=O)C=C)C4)c4ncnc(N)c34)cc2)c1 (stereo not drawn) [compound 12, PF-06658607, reference compound]	additional prominent off-target band around 60 kDa	73	–
C=CP(=O)(Nc1ccccc1)OCC (stereo not drawn) [1a]	–	–	no reaction or degradation products were detected
